Assay results reported in US6620822B1, “Fungicidal combinations of active substance” (priority 1999, dated 2003).

Columns and labels:
Format in all cases: in vivo
[1] = tested on: Phytophthora infestans; details: tomato, protective, single active compound, application rate 5 g/ha, evaluation 3 days after inoculation
[2] = tested on: Sphaerotheca fuliginea; experiment: Sphaerotheca test (cucumber)/protective; details: protective, single active compound, evaluation 10 days after inoculation
[3] = tested on: Erysiphe graminis f.sp. hordei; experiment: Erysiphe test (barley)/curative; details: curative, single active compound, evaluation 7 days after inoculation

Q: What does the source list for `Fc1ccc(Oc2ccnc3cc(Cl)cc(Cl)c23)cc1` [(I), 5,7-dichloro-4-(4-fluoro-phenoxy)-quinoline]?
A: Efficacy in % [1]: 4%; Efficacy in % ([2]; application rate 5 g/ha): 57%; Efficacy in % ([2]; application rate 10 g/ha): 63%; Efficacy in % ([3]; application rate 6.25 g/ha): 43%; Efficacy in % ([3]; application rate 25 g/ha): 57%

Q: For `CC(C)(C)C(O)C(Oc1ccc(Cl)cc1)n1cncn1` (stereo not drawn) [(IIa), 1-(4-chloro-phenoxy)-3,3-dimethyl-1-(1,2,4-triazol-1-yl)-butan-2-ol], which Efficacy in % ([2]; application rate 5 g/ha) is on record?
A: 63%

Q: And the Efficacy in % ([3]; application rate 25 g/ha)?
A: 93%

Q: Which Efficacy in % ([2]; application rate 10 g/ha) does the source give for `CC(C)(C)C(O)C(Oc1ccc(-c2ccccc2)cc1)n1cncn1` (stereo not drawn) [(IIb), 1-(4-phenyl-phenoxy)-3,3-dimethyl-1-(1,2,4-triazol-1-yl)-butan-2-ol] here?
A: 27%

Q: `Cc1ccc(C(C)NC(=O)C(NC(=O)OC(C)C)C(C)C)cc1` (stereo not drawn) [(VI)] was tested. Which Efficacy in % ([2]; application rate 10 g/ha) did it give?
A: 0%

Q: With `CC1CNC(=S)[S][Zn][S]C(=S)N1` (stereo not drawn) [(IV), zinc propylene-1,2-bis-(dithiocarbamidate)] as the compound, how does the Efficacy in % ([2]; application rate 50 g/ha) read?
A: 0%

Q: With `CC1(C(=O)Nc2ccc(O)c(Cl)c2Cl)CCCCC1` [(V)] as the compound, how does the Efficacy in % ([2]; application rate 10 g/ha) read?
A: 0%

Q: With `Cc1ccc(N(SC(F)(Cl)Cl)S(=O)(=O)N(C)C)cc1` [(III), N-dichloro-fluoro-methylthio-N′,N′-dimethyl-N-p-tolylsulfamide] as the compound, how does the Efficacy in % ([2]; application rate 50 g/ha) read?
A: 0%
